Assay results as given in patent US20260355182A1, “ISOQUINOLINE DERIVATIVE, SYNTHESIS METHOD THEREFOR, AND USE THEREOF” (Harbin Gloria Pharmaceuticals Co., Ltd., priority 2023, published 2026).

What was measured:
[1] = tested on: MPTP-induced Parkinsonian mouse model; test: MPTP-induced Parkinsonian mouse model, rotarod and TH Western blot (T6); format: in vivo; conditions: T6 0.15, 0.3 and 1.5 mg/kg
Protocol: Mice were administered MPTP at 20 mg/kg to induce Parkinsonian motor impairment and dopaminergic neuronal injury. […] In FIG. 13, A) motor coordination and endurance were assessed using the rotarod test and are expressed as the time remaining on the rotating rod. […] Actin was used as a loading control. […] Data are presented as mean±error bars, with individual points representing biological replicates. Significance of one-way ANOVA analysis is indicated as P<0.05 (*), P<0.01 (**), and P<0.001 (***).

db/db mice [2] = test: Hypoglycemic effect in diabetic model db/db mice, intraperitoneal; format: in vivo; conditions: 4 hours
Protocol: Gene knockout db/db mice are a classic model of hyperglycemia and obesity. Under normal feeding conditions, mice aged 3 months or older developed hyperglycemia and obesity. After the mice were provided with only drinking water (fasted) for 6 hours, blood was collected from the tail of the mice to measure blood glucose values. Subsequently, different drugs, including saline (control), liraglutide at 0.6 mg/Kg, low-concentration T6 (T6 low, 0.1 mg/Kg), and high-concentration T6 (T6 high, 0.5 mg/Kg), were injected intraperitoneally. 4 hours later, blood was collected from the tail of the mice to measure the blood glucose levels. Each group consisted of 6 mice. Blood glucose levels before administration (Vbefore) and after administration (Vafter) were obtained for each mouse. The effect of the drug on blood glucose (%) was calculated as follows:
(Vbefore−Vafter)×100/Vbefore.

db/db mice [3] = test: Chronic treatment assay, HbA1c in db/db mice (ELISA); format: in vivo; conditions: drinking water 2 weeks, particularly T6 1.5 mg/kg, vs untreated control
Protocol: (§1) The db/db mice were used to evaluate the glucose-lowering activity of compound T6 in comparison with reference metabolic agents (TZ 0.5 mg/Kg, liraglutide 0.6 mg/Kg, T6 0.5 mg/Kg). In FIG. 15, A) for the acute glucose-response assay, drugs were administered to non-fasted db/db mice. Immediately after drug administration (s. c.), mice were deprived of food and water, and blood glucose levels were measured from tail blood samples 2 h later. The relative percentage change in blood glucose was calculated by comparing glucose levels before and after treatment in the same animal. […] HbA1c levels were then measured using a glycated hemoglobin A1c enzyme-linked immunosorbent assay, also referred to as a mouse HbA1c ELISA assay. […] Data are presented as mean±error bars, with individual circles representing individual animals. Statistical significance is indicated as P<0.001 (**) and P<0.0001 (***).

FUS-525-GFP = test: Level of ALS-associated mutant FUS-GFP protein in primary mouse neurons (Western blot); format: cell-based; conditions: 5, 10 or 20 μM
Protocol: Primary mouse neurons were engineered to express GFP-tagged mutant FUS-525, an ALS-associated pathogenic FUS variant, and were treated with vehicle control or compound T6 at 5, 10, or 20 μM. Cell lysates were analyzed by Western blotting using antibodies detecting FUS-GFP, with GAPDH serving as a loading control. In FIG. 11, the FUS-GFP fusion protein was detected at approximately 96 kDa, whereas GAPDH was detected at approximately 38 kDa.

SK-N-SH cells = test: Dose-effect relationship on cellular ATP levels in cultured SK-N-SH cells; format: cell-based, human
Protocol: SK-N-SH cells were seeded in a 6-well plate at a density of 6×10^4 per well. Cells were cultured for 12 hours under 5% O2, and the drug was added. Cells were harvested after 48 hours. Cellular ATP levels were measured using a Promega ATP assay kit. The experiment was repeated 5 times to 7 times.

db/db mice [4] = test: Acute glucose-response assay in non-fasted db/db mice; format: in vivo; conditions: s.c., 2 h; TZ 0.5, liraglutide 0.6, T6 0.5 mg/Kg
Protocol: as §1

Compound: Nc1nc(N2CCN(C(=O)[C@H]3CCCO3)CC2)cc2cc3c(cc12)OCC3 [Compound T6]
- Rotarod performance ([1]; MPTP 20 mg/kg): improved rotarod performance in MPTP-treated mice, with significant protective effects
- TH protein abundance ([1]; normalized to actin, vs MPTP alone): significantly increased relative TH abundance
- Hypoglycemic effect (low concentration) (db/db mice [2]; 0.1 mg/kg i.p.): significant hypoglycemic effects
- Hypoglycemic effect (high concentration) (db/db mice [2]; 0.5 mg/kg i.p.): significant hypoglycemic effects
- HbA1c level (db/db mice [3]): reduced HbA1c levels
- Abundance of mutant FUS-GFP protein (FUS-525-GFP): reduced the abundance of mutant FUS-GFP protein
- GAPDH level (FUS-525-GFP; loading control): remained largely unchanged
- Inhibition of cell growth (SK-N-SH cells; 50 μM, SK-N-SH cells): a tendency to inhibit cell growth
- minimal effective concentration (SK-N-SH cells; Homo sapiens, 48 h, SK-N-SH cells, read-out: Biologically effective concentration): ~10 µM
- Optimal dose for cellular ATP levels (SK-N-SH cells; doses 5, 10 and 50 μM, 48 hours, 5% O2): 50 µM
- Acute change in blood glucose (db/db mice [4]): marked reduction in blood glucose
